From ChEMBL document CHEMBL3763052, “Novel N-acyl-carbazole derivatives as 5-HT7R antagonists” (Eur J Med Chem, 2016)

Experiments:
[1] = Clearance in Sprague-Dawley rat at 10 mg/kg, iv by LC-MS/MS analysis; format: ADME, organism-based; conditions: in vivo
[2] = target: T1, 5-hydroxytryptamine receptor 3A (Homo sapiens) (UniProt P46098); test: Binding affinity to recombinant 5-HT3 receptor (unknown origin) at 10 uM after 1.5 hrs by radioligand displacement assay
T1 sequence (whole entry): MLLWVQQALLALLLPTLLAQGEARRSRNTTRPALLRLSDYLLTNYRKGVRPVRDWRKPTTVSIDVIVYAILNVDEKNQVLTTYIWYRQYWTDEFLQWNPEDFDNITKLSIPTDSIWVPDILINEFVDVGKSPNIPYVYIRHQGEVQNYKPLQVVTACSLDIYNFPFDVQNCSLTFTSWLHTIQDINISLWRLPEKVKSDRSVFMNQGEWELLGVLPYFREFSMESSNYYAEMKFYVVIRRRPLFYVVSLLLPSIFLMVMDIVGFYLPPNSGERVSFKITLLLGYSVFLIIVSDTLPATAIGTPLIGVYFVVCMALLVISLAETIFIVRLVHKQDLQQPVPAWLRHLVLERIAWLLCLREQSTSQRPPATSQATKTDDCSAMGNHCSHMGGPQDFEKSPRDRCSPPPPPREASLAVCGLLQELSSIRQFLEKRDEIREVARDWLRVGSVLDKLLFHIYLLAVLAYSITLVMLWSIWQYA

[3] = target: 5-hydroxytryptamine receptor 5A (Homo sapiens, UniProt P47898); test: Binding affinity to recombinant 5-HT5 receptor (unknown origin) at 10 uM after 1.5 hrs by radioligand displacement assay
[4] = Tmax in Sprague-Dawley rat at 10 mg/kg, po by LC-MS/MS analysis; format: ADME, organism-based; conditions: in vivo
[5] = Mean residential time in Sprague-Dawley rat at 10 mg/kg, iv by LC-MS/MS analysis; format: ADME, organism-based; conditions: in vivo
[6] = Terminal half life in Sprague-Dawley rat at 10 mg/kg, po by LC-MS/MS analysis; format: ADME, organism-based; conditions: in vivo, read-out: beta t1/2
[7] = Plasma concentration in Sprague-Dawley rat at 10 mg/kg, po after 2 hrs by LC-MS/MS analysis; format: ADME, organism-based
[8] = AUC (0 to infinity) in Sprague-Dawley rat at 10 mg/kg, po by LC-MS/MS analysis; format: ADME, organism-based; design: dose 10 mg/kg, route oral, time infinity; conditions: in vivo
[9] = test system: Mus musculus; test: Antidepressant activity in ICR mouse assessed as immobility time at 30 mg/kg, iv administered 30 mins before testing by forced swim test (reference value: 159.1 sec); format: functional
[10] = target: 5-hydroxytryptamine receptor 2A (Homo sapiens, UniProt P28223); test: Binding affinity to recombinant 5-HT2A receptor (unknown origin) after 1.5 hrs by radioligand displacement assay
[11] = AUC (0 to infinity) in Sprague-Dawley rat at 10 mg/kg, iv by LC-MS/MS analysis; format: ADME, organism-based; design: dose 10 mg/kg, route intravenous, time infinity; conditions: in vivo
[12] = target: T2, 5-hydroxytryptamine receptor 7 (Homo sapiens, UniProt P34969); test: Agonist activity at human 5-HT7 receptor expressed in HEK293 cells assessed as increase in cAMP level at 12.5 uM by fluorescence analysis relative to 5-CT; format: functional, cell-based
[13] = target: T2, 5-hydroxytryptamine receptor 7; test: Binding affinity to recombinant 5-HT7 receptor (unknown origin) after 1.5 hrs by radioligand displacement assay
[14] = Plasma concentration in Sprague-Dawley rat at 10 mg/kg, iv after 2 hrs by LC-MS/MS analysis; format: ADME, organism-based
[15] = Terminal half life in Sprague-Dawley rat at 10 mg/kg, iv by LC-MS/MS analysis; format: ADME, organism-based; conditions: in vivo, read-out: beta t1/2
[16] = Drug uptake in Sprague-Dawley rat brain at 10 mg/kg, iv after 2 hrs by LC-MS/MS analysis; format: ADME, organism-based; conditions: read-out: Drug uptake
[17] = target: T2, 5-hydroxytryptamine receptor 7; test: Antagonist activity at human 5-HT7 receptor expressed in HEK293 cells assessed as inhibition of 5-HT-induced cAMP production at 10 uM pretreated for 10 mins followed by stimulation with 5-HT for 30 mins by fluorescence analysis; format: functional, cell-based
[18] = target: 5-hydroxytryptamine receptor 1D (Homo sapiens, UniProt P28221); test: Binding affinity to recombinant 5-HT1D receptor (unknown origin) after 1.5 hrs by radioligand displacement assay
[19] = AUC (0 to last) in Sprague-Dawley rat at 10 mg/kg, po by LC-MS/MS analysis; format: ADME, organism-based; design: dose 10 mg/kg, time 0 - last, route oral; conditions: in vivo
[20] = Drug uptake in Sprague-Dawley rat brain at 10 mg/kg, po after 2 hrs by LC-MS/MS analysis; format: ADME, organism-based; conditions: read-out: Drug uptake
[21] = Ratio of drug uptake in brain to plasma of Sprague-Dawley rat at 10 mg/kg, po after 2 hrs by LC-MS/MS analysis; format: ADME, organism-based; conditions: read-out: BPR
[22] = Cmax in Sprague-Dawley rat at 10 mg/kg, po by LC-MS/MS analysis; format: ADME, organism-based; design: dose 10 mg/kg, route oral; conditions: in vivo
[23] = target: T3, 5-hydroxytryptamine receptor 2C (Homo sapiens, UniProt P28335); test: Binding affinity to recombinant 5-HT2C receptor (unknown origin) after 1.5 hrs by radioligand displacement assay
T3 sequence (P28335 whole entry): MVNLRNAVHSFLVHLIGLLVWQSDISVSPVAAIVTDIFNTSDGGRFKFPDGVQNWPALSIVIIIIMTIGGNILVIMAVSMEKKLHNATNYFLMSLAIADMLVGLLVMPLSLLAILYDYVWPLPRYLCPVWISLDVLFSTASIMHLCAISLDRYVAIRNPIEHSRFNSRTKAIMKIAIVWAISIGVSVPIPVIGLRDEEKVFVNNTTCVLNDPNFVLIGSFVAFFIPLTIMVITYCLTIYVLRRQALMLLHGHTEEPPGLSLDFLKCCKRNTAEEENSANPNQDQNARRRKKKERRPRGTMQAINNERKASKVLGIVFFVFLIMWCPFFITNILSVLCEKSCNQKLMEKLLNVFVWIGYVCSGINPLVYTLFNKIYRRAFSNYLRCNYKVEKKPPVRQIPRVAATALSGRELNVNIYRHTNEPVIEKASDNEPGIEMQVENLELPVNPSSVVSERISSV

[24] = target: 5-hydroxytryptamine receptor 2B (Homo sapiens, UniProt P41595); test: Binding affinity to recombinant 5-HT2B receptor (unknown origin) after 1.5 hrs by radioligand displacement assay
[25] = Metabolic stability in human liver microsomes assessed as compound remaining at 1 uM after 30 mins by LC-MS/MS in presence of NADPH; format: ADME; conditions: read-out: Stability
[26] = Volume of distribution at steady state in Sprague-Dawley rat at 10 mg/kg, iv by LC-MS/MS analysis; format: ADME, organism-based; conditions: in vivo, read-out: Vdss
[27] = target: 5-hydroxytryptamine receptor 6 (Homo sapiens, UniProt P50406); test: Binding affinity to recombinant 5-HT6 receptor (unknown origin) at 10 uM after 1.5 hrs by radioligand displacement assay
[28] = Ratio of drug uptake in brain to plasma of Sprague-Dawley rat at 10 mg/kg, iv after 2 hrs by LC-MS/MS analysis; format: ADME, organism-based; conditions: read-out: BPR
[29] = target: 5-hydroxytryptamine receptor 1B (Homo sapiens, UniProt P28222); test: Binding affinity to recombinant 5-HT1B receptor (unknown origin) after 1.5 hrs by radioligand displacement assay
[30] = target: T4, 5-hydroxytryptamine receptor 1A (Homo sapiens, UniProt P08908); test: Binding affinity to recombinant 5-HT1A receptor (unknown origin) after 1.5 hrs by radioligand displacement assay
T4 sequence (P08908 whole entry): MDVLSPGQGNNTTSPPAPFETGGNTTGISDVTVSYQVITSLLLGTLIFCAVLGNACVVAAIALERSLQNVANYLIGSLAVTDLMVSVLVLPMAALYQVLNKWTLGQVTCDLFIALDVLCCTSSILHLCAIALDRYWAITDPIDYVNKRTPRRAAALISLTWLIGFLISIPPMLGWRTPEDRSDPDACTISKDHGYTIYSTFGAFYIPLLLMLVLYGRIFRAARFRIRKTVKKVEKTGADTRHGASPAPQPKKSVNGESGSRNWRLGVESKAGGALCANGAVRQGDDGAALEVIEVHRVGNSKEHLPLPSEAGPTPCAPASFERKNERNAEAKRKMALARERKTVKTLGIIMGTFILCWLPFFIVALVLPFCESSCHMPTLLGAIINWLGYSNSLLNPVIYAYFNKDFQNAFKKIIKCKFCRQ

[31] = target: T2, 5-hydroxytryptamine receptor 7; test: Displacement of [3H]LSD from 5-HT7 receptor (unknown origin) expressed in CHO-K1 cells by liquid scintillation counting method; format: cell-based
[32] = Oral bioavailability in Sprague-Dawley rat at 10 mg/kg by LC-MS/MS analysis; format: ADME, organism-based; conditions: in vivo
[33] = AUC (0 to last) in Sprague-Dawley rat at 10 mg/kg, iv by LC-MS/MS analysis; format: ADME, organism-based; design: dose 10 mg/kg, time 0 - last, route intravenous; conditions: in vivo

T2 sequence (P34969 whole entry): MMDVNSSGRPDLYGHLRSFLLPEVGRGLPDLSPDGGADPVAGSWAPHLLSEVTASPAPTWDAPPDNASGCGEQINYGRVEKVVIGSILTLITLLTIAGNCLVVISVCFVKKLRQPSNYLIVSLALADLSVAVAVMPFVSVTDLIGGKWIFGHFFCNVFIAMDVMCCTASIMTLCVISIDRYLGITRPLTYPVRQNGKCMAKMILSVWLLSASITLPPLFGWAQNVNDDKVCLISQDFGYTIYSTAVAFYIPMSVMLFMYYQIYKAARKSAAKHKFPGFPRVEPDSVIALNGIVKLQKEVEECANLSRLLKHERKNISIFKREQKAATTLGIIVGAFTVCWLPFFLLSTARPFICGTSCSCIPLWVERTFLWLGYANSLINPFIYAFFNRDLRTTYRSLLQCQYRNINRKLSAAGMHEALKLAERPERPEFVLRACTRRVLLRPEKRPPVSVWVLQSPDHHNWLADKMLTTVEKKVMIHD
Chain of 5-hydroxytryptamine receptor 1D (P28221 whole entry): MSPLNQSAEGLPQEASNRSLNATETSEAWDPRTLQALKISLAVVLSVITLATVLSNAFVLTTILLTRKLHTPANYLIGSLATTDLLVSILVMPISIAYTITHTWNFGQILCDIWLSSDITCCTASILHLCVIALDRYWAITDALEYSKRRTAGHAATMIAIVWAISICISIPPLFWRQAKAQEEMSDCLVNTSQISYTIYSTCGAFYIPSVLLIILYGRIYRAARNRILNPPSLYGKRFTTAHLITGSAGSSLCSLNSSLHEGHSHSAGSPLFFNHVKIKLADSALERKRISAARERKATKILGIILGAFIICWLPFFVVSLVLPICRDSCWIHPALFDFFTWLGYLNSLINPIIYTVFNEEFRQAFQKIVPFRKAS
Chain of 5-hydroxytryptamine receptor 1B (P28222 whole entry): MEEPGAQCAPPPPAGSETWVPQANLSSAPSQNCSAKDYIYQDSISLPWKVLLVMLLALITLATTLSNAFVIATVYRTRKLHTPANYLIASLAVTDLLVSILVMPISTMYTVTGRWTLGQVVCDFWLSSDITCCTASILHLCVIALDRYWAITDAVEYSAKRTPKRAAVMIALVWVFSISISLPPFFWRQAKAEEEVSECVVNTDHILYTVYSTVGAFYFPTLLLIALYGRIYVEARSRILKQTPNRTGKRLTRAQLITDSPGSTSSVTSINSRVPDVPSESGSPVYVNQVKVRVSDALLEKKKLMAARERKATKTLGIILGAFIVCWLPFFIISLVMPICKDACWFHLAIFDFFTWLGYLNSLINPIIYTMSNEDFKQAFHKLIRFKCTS
Chain of 5-hydroxytryptamine receptor 2B (P41595 whole entry): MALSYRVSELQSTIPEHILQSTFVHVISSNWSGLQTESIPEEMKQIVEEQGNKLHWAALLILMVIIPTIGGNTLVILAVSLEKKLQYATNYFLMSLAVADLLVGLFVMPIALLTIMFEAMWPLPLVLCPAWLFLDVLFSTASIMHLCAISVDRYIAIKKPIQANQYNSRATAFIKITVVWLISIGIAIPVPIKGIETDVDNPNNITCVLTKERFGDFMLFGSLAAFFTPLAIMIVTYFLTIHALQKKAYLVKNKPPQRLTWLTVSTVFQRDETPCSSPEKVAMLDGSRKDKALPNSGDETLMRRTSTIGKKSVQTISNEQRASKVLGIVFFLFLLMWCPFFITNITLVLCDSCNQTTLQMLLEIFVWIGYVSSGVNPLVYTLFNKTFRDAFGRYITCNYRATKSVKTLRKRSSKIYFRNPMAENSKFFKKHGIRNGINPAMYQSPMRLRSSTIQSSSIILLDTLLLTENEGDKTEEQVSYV
Chain of 5-hydroxytryptamine receptor 2A (P28223 whole entry): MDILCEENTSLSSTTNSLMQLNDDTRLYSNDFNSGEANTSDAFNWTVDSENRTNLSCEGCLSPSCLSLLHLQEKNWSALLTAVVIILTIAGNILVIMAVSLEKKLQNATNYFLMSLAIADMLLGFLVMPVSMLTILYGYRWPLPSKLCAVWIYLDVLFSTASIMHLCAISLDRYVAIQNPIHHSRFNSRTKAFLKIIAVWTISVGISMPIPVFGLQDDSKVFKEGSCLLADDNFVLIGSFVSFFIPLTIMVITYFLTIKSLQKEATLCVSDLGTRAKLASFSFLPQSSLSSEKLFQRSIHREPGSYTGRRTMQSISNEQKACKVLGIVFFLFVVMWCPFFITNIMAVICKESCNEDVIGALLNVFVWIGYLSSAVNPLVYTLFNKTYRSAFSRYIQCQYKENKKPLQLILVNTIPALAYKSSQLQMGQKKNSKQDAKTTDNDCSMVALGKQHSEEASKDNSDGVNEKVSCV
Chain of 5-hydroxytryptamine receptor 6 (P50406 whole entry): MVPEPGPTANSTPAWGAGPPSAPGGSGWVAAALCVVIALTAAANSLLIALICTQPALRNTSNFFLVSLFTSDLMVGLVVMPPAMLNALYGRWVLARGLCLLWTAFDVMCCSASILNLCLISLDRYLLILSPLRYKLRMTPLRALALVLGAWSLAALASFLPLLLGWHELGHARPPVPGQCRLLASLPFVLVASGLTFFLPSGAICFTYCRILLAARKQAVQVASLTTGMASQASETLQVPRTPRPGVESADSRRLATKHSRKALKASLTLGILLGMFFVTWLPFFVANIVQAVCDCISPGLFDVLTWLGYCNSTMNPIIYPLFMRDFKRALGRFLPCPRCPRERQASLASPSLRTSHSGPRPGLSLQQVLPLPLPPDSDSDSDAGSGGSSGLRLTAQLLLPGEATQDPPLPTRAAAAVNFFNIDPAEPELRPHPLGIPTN
Chain of 5-hydroxytryptamine receptor 5A (P47898 whole entry): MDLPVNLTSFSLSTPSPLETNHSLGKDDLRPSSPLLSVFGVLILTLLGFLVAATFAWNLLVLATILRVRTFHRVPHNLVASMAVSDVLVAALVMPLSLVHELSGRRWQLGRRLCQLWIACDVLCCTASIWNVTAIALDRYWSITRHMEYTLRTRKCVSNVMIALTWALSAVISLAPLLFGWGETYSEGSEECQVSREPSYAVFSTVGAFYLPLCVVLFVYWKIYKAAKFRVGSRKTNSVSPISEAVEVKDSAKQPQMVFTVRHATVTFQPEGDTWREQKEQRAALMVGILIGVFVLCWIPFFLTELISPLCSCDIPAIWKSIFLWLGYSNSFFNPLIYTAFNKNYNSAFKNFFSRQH

Structure (SMILES): COc1ccccc1N1CCN(CCCCCC(=O)n2c3ccccc3c3ccccc32)CC1.Cl
- clearance [1]: 114 mL/min/kg
- inhibition [2]: 18%
- inhibition [3]: 34%
- Tmax [4]: 3.57 h
- MRT [5]: 2.81 h
- half-life [6]: 6.62 h
- concentration at 2 h [7]: 70 ng/mL
- AUC(0-inf) [8]: 998 ng·h/mL
- Time [9]: 118.9 s
- Ki [10]: 1260 nM
- AUC(0-inf) [11]: 1470 ng·h/mL
- Activity [12]: 22.2%
- Ki [13]: 74 nM
- concentration at 2 h [14]: 210 ng/mL
- half-life [15]: 3.32 h
- concentration at 2 h [16]: 268 ng/mL
- inhibition [17]: 75.2%
- Ki [18]: 1280 nM
- AUC(0-t) [19]: 561 ng·h/mL
- concentration at 2 h [20]: 1530 ng/mL
- Kp at 2 h [21]: 25.5
- Cmax [22]: 160 ng/mL
- Ki [23]: 588 nM
- Ki [24]: 419 nM
- remaining at 0.5 h, 1 µM [25]: 50.8%
- Vd [26]: 33.5 L/kg
- inhibition [27]: 31%
- Kp at 2 h [28]: 1.23
- Ki [29]: 845 nM
- Ki [30]: 549 nM
- Ki [31]: 74 nM
- bioavailability [32]: 67.8%
- AUC(0-t) [33]: 1170 ng·h/mL
